This note sets out measurements from ChEMBL document CHEMBL4130616, “Bastimolide B, an Antimalarial 24-Membered Marine Macrolide Possessing a tert-Butyl Group” (J Nat Prod, 2018).

One may read the IC50 as the midpoint of a concentration-inhibition curve. Higher therefore signals a need for much substance.

In the first assay the test system is Plasmodium falciparum. Briefly: Antimalarial activity against chloroquine-sensitive Plasmodium falciparum HB3 by pico-green dye based fluorescence assay.
Conditions: not given
In kind it is functional, organism-based.
On to `C/C1=C/C(=O)O[C@H](C(C)(C)C)CCC[C@H](O)CCC[C@H](O)CCC[C@H](O)CCC[C@@H](O)C[C@@H](O)C[C@H](O)CCC[C@@H](O)CCC[C@@H](O)C[C@@H](O)CCCCC1` [listing 1 of 2 here], for which the IC50 was 1.4 µM.

The assay is the same for the next values; noted with them: Plasmodium falciparum, HB3.
`C/C1=C/C(=O)O[C@H](C(C)(C)C)CCC[C@H](O)CCC[C@H](O)CCC[C@H](O)CCC[C@@H]2C[C@H](C[C@H](O)CCC[C@@H](O)CCC[C@@H](O)C[C@@H](O)CCCCC1)OC(C)(C)O2` showed an IC50 of 20 µM.

Take `C/C1=C/C(=O)O[C@H](CCC[C@@H](O)CCC[C@@H](O)CCC[C@@H](O)CCC[C@H](O)C(C)(C)C)C[C@@H](O)C[C@H](O)CCC[C@@H](O)CCC[C@@H](O)C[C@@H](O)CCCCC1`: half-maximal inhibition (IC50) was put at 5.7 µM.

With `C/C1=C/C(=O)O[C@H](C(C)(C)C)CCC[C@H](O)CCC[C@H](O)CCC[C@H](O)CCC[C@@H](O)C[C@@H](O)C[C@H](O)CCC[C@@H](O)CCC[C@@H]2C[C@H](CCCCC1)OC(C)(C)O2`, the half-inhibitory concentration (IC50) stood at 2.3 µM.

The compound `C/C1=C/C(=O)O[C@H](C(C)(C)C)CCC[C@H](O)CCC[C@H](O)CCC[C@H](O)CCC[C@@H](O)C[C@@H](O)C[C@H](O)CCC[C@@H](O)CCC[C@@H](O)C[C@@H](O)CCCCC1` [listing 2 of 2 here] displayed an IC50 of 2.6 µM.

For `C/C1=C/C(=O)O[C@H](C(C)(C)C)CCC[C@H](O)CCC[C@H](O)CCC[C@H](O)CCC[C@@H]2C[C@H](C[C@H](O)CCC[C@@H](O)CCC[C@@H]3C[C@H](CCCCC1)OC(C)(C)O3)OC(C)(C)O2`, the IC50 amounted to 9.7 µM.
